Data reported in patent US12022832B2, “Compounds and methods for treating nematode infections” (The Governing Council of The University of Toronto, priority 2018, dated 2024).
Where two headings read alike, the source gives them in different places.

Assays:
M. incognita (J2) = test: M. incognita J2 viability in vitro; type: in vivo, Meloidogyne incognita; conditions: assay done using 45 uM; for M. incognita (J2 viability in vitro): concentration giving >20% and <80% death: 48 or 72 hours, other compounds
C. elegans (L1) = test: C. elegans L1 viability, three day protocol; type: in vivo, Caenorhabditis elegans; conditions: for EC (80% dead): Caenorhabditis elegans, read-out: C. elegans (L1 viability): lowest concentration tested in which at least 80% of animals were dead
C. elegans = C. elegans acute motor (rubber-band, convulsion/paralysis) phenotype on solid substrate; type: in vivo, Caenorhabditis elegans; conditions: for C. elegans acute motor phene: concentration at which 10-50% of the animals exhibit convulsion/paralysis phenotypes / C. elegans acute motor phene: lowest concentration at which 50% of the young adult animals exhibit convulsion/paralysis phenotypes: solid substrate; for C. elegans acute motor phene: concentration at which 10-50% of the animals exhibit convulsion/paralysis phenotypes: 80 minutes, compounds 55-12-6, 55-12-9, 55-12-12, 55-12-21, 55-12-23; for C. elegans acute motor phene: lowest concentration at which 50% of the young adult animals exhibit convulsion/paralysis phenotypes: 80 minutes of incubation
Text: Worms are scored for the indicated phenotype (see legend); convulsions along the circumferential axis is characterized as the ‘shaker’ phenotype in C. elegans; convulsions along the anterior-posterior axis is characterized as the ‘rubber-band’ phenotype in C. elegans. 18 young-adult animals were scored at each time-point for rubber-band (animals spontaneously contract or do so upon touch on the nose with a platinum wire), hyperactive movement (observing rapid lateral nose movement) and shaker (spontaneous circumferential rotations). […] Data are showing the mean number of animals with each phenotype.
If a penetrant phenotype is observed, a dose-response analysis is performed; the EC50 is shown.
Each compound was added to the MYOB substrate before pouring to achieve desired concentration after diffusion through the media. The final concentration of dimethyl sulfoxide (DMSO) in each of the wells was […]. Young adult or fourth-staged larval worms are transferred into each well using a platinum wire pick.
˜25 young adult animals of each indicated strain were picked using a platinum wire onto 2% MYOB agar containing the indicated drug condition with 1% DMSO. […] 18 animals were scored per trial; data are the mean response of 2-3 replicates showing the standard error of the mean.

M. incognita (eggs) = test: M. incognita egg-hatch assay; type: in vivo, Meloidogyne incognita; conditions: 45 uM of each compound, ~50 eggs per well; effect threshold not stated
P. pacificus (L1) = test: P. pacificus L1 viability; type: in vivo, Pristionchus pacificus; conditions: 72 hours; for P. pacificus (L1 viability): lowest concentration tested in which at least 80% of animals were dead: relative to no-drug controls
C. elegans (adult) = test: C. elegans adult viability; type: in vivo, Caenorhabditis elegans; conditions: 72 hours, relative to no-drug controls
P. hermaphrodita (L1) = test: P. hermaphrodita L1 viability; type: in vivo, Phasmarhabditis hermaphrodita; conditions: 72 hours; for P. hermaphrodita (L1 viability): lowest concentration tested in which at least 80% of animals were dead: relative to no-drug controls; for P. hermaphrodita (L1 viability): lowest concentration tested in which greater than 20% of animals were dead: compounds 55-6, 55-12-20, 55-12-22
C. elegans (dauer) = test: C. elegans dauer viability; type: in vivo, Caenorhabditis elegans; conditions: relative to no-drug controls; for C. elegans (dauer viability): lowest concentration tested in which at least 80% of animals were dead: 72 hours
M. incognita = M. incognita Quick Soil Test (tomato); type: in vivo, Meloidogyne incognita; conditions: 45 uM, ~2000 J2 per tomato plant, worms in soil 4 days; for M. incognita (Quick Soil Test): concentration giving >80% killing: J2s counted in root tissue; for M. incognita (Quick Soil Test): concentration giving 10-20% killing: other compounds
[1] = 72 hours, relative to no-drug controls

CCCc1ccc(-c2ccc(OC(F)F)cc2)cn1 [IIIaa (wact-55-12-7), 5-(4-(difluoromethoxy)phenyl)-2-propylpyridine]
M. incognita (J2 viability in vitro): concentration giving >80% death (M. incognita (J2); 48 or 72 hours of incubation): 45 µM | EC (80% dead) (C. elegans (L1); [1]): 30 µM

CCCc1ccc(-c2ccc(OC(F)F)cn2)cc1 [IIIbb (wact-55-12-8), 5-(difluoromethoxy)-2-(4-propylphenyl)pyridine]
M. incognita (J2 viability in vitro): concentration giving >20% and <80% death (M. incognita (J2)): np | EC (80% dead) (C. elegans (L1); 72 h): 60 µM

CCCc1ccc(-c2ccc(OC(F)F)nc2)cc1 [IIIcc (wact-55-12-9), 2-(difluoromethoxy)-5-(4-propylphenyl)pyridine]
M. incognita (J2 viability in vitro): concentration giving >20% and <80% death (M. incognita (J2)): np | C. elegans acute motor phene: concentration at which 10-50% of the animals exhibit convulsion/paralysis phenotypes (C. elegans): 60 μM | M. incognita (Egg Hatch Rate) (M. incognita (eggs)): np | EC (80% dead) (C. elegans (L1); 72 h): 60 µM

CCc1ccc(-c2ccc(OC(F)F)cc2)nc1 [IIIdd (wact-55-12-10), 2-(4-(difluoromethoxy)phenyl)-5-ethylpyridine]
P. pacificus (L1 viability): lowest concentration tested in which at least 80% of animals were dead (P. pacificus (L1)): 15 µM | C. elegans (adult viability): lowest concentration tested in which at least 80% of animals were dead (C. elegans (adult)): np | P. hermaphrodita (L1 viability): lowest concentration tested in which at least 80% of animals were dead (P. hermaphrodita (L1)): 15 µM | EC (80% dead) (C. elegans (L1); [1]): 30 µM | C. elegans (dauer viability): lowest concentration tested in which at least 80% of animals were dead (C. elegans (dauer)): 30 µM

Cc1ccc(-c2ccc(OC(F)F)cc2)nc1 [IIIee (wact-55-12-11), 2-(4-(difluoromethoxy)phenyl)-5-methylpyridine]
M. incognita (J2 viability in vitro): concentration giving >20% and <80% death (M. incognita (J2)): np | EC (80% dead) (C. elegans (L1); [1]): 60 µM

FC(F)Oc1ccc(-c2ccccn2)cc1 [IIIff (wact-55-12-12), 2-(4-(difluoromethoxy)phenyl)pyridine]
P. pacificus (L1 viability): lowest concentration tested in which at least 80% of animals were dead (P. pacificus (L1)): 60 µM | C. elegans (adult viability): lowest concentration tested in which at least 80% of animals were dead (C. elegans (adult)): np | M. incognita (Quick Soil Test): concentration giving >80% killing (M. incognita): 45 µM | M. incognita (J2 viability in vitro): concentration giving >20% and <80% death (M. incognita (J2)): 45 µM | P. hermaphrodita (L1 viability): lowest concentration tested in which at least 80% of animals were dead (P. hermaphrodita (L1)): 60 µM | C. elegans acute motor phene: concentration at which 10-50% of the animals exhibit convulsion/paralysis phenotypes (C. elegans): 60 μM | C. elegans (L1 viability): lowest concentration tested in which at least 80% of animals were dead (C. elegans (L1); [1]): np | C. elegans (dauer viability): lowest concentration tested in which at least 80% of animals were dead (C. elegans (dauer)): np

CC#Cc1ccc(-c2ccc(OC(F)F)cc2)nc1 [IIIhh (wact-55-12-14), 2-(4-(difluoromethoxy)phenyl)-5-(prop-1-yn-1-yl)pyridine]
M. incognita (J2 viability in vitro): concentration giving >20% and <80% death (M. incognita (J2)): np | EC (80% dead) (C. elegans (L1); [1]): 7.5 µM

NCc1ccc(-c2ccc(OC(F)F)cc2)nc1 [IIIkk (wact-55-12-17), (6-(4-(difluoromethoxy)phenyl)pyridin-3-yl)methanamine]
M. incognita (J2 viability in vitro): concentration giving >20% and <80% death (M. incognita (J2)): np | C. elegans acute motor phene: lowest concentration at which 50% of the young adult animals exhibit convulsion/paralysis phenotypes (C. elegans): np | M. incognita (Egg Hatch Rate) (M. incognita (eggs)): np | M. incognita (Hatching Mobility) (M. incognita (eggs)): np | C. elegans (L1 viability): lowest concentration tested in which at least 80% of animals were dead (C. elegans (L1); [1]): np

CCCc1cccc(-c2ccc(OC(F)F)cc2)n1 [IIInn (wact-55-12-20), 2-(4-(difluoromethoxy)phenyl)-6-propylpyridine]
P. pacificus (L1 viability): lowest concentration tested in which greater than 20% of animals were dead (P. pacificus (L1); compound 55-12-20): 30 µM | C. elegans (adult viability): lowest concentration tested in which at least 80% of animals were dead (C. elegans (adult)): np | P. hermaphrodita (L1 viability): lowest concentration tested in which greater than 20% of animals were dead (P. hermaphrodita (L1)): 60 µM | C. elegans acute motor phene: lowest concentration at which 50% of the young adult animals exhibit convulsion/paralysis phenotypes (C. elegans): np | C. elegans (L1 viability): lowest concentration tested in which at least 80% of animals were dead (C. elegans (L1); [1]): np | C. elegans (dauer viability): lowest concentration tested in which at least 80% of animals were dead (C. elegans (dauer)): np

CCCc1ccnc(-c2ccc(OC(F)F)cc2)c1 [IIIoo (wact-55-12-21), 2-(4-(difluoromethoxy)phenyl)-4-propylpyridine]
P. pacificus (L1 viability): lowest concentration tested in which at least 80% of animals were dead (P. pacificus (L1)): 30 µM | C. elegans (adult viability): lowest concentration tested in which at least 80% of animals were dead (C. elegans (adult)): np | M. incognita (Quick Soil Test): concentration giving >80% killing (M. incognita): 45 µM | M. incognita (J2 viability in vitro): concentration giving >20% and <80% death (M. incognita (J2)): np | P. hermaphrodita (L1 viability): lowest concentration tested in which at least 80% of animals were dead (P. hermaphrodita (L1)): 30 µM | C. elegans acute motor phene: concentration at which 10-50% of the animals exhibit convulsion/paralysis phenotypes (C. elegans): 60 μM | M. incognita (Egg Hatch Rate) (M. incognita (eggs)): np | C. elegans (L1 viability): lowest concentration tested in which greater than 20% of animals were dead (C. elegans (L1); 72 hours, relative to no-drug controls, compounds 55-11, 55-12-21, 55-12-23): 60 µM | C. elegans (dauer viability): lowest concentration tested in which at least 80% of animals were dead (C. elegans (dauer)): np

CCCc1cccnc1-c1ccc(OC(F)F)cc1 [IIIpp (wact-55-12-22), 2-(4-(difluoromethoxy)phenyl)-3-propylpyridine]
P. pacificus (L1 viability): lowest concentration tested in which at least 80% of animals were dead (P. pacificus (L1)): np | C. elegans (adult viability): lowest concentration tested in which at least 80% of animals were dead (C. elegans (adult)): np | P. hermaphrodita (L1 viability): lowest concentration tested in which greater than 20% of animals were dead (P. hermaphrodita (L1)): 60 µM | C. elegans acute motor phene: lowest concentration at which 50% of the young adult animals exhibit convulsion/paralysis phenotypes (C. elegans): np | C. elegans (L1 viability): lowest concentration tested in which at least 80% of animals were dead (C. elegans (L1); [1]): np | C. elegans (dauer viability): lowest concentration tested in which at least 80% of animals were dead (C. elegans (dauer)): np

CCCc1cnc(-c2ccc(OC(F)F)cc2)nc1 [IIIss (wact-55-12-25), 2-(4-(difluoromethoxy)phenyl)-5-propylpyrimidine]
M. incognita (J2 viability in vitro): concentration giving >20% and <80% death (M. incognita (J2)): np

CC(C)Cc1ccc(-c2ccc(OC(F)F)cc2)nc1 [IIItt (wact-55-12-26), 2-(4-(difluoromethoxy)phenyl)-5-isobutylpyridine]
M. incognita (Quick Soil Test): concentration giving 10-20% killing (M. incognita): 45 uM | M. incognita (J2 viability in vitro): concentration giving >20% and <80% death (M. incognita (J2)): np | M. incognita (Hatching Mobility) (M. incognita (eggs)): np | EC (80% dead) (C. elegans (L1); [1]): 30 µM

CCCCc1ccc(-c2ccc(OC(F)F)cc2)nc1 [IIIuu (wact-55-12-27), 5-butyl-2-(4-(difluoromethoxy)phenyl)pyridine]
M. incognita (J2 viability in vitro): concentration giving >20% and <80% death (M. incognita (J2)): np | M. incognita (Egg Hatch Rate) (M. incognita (eggs)): np | EC (80% dead) (C. elegans (L1); [1]): 15 µM

CCCCc1ccc(-c2ccc(OC)cc2)nc1 [IIIw (wact-55-12-28), 5-butyl-2-(4-methoxyphenyl)pyridine]
M. incognita (Quick Soil Test): concentration giving >80% killing (M. incognita): 45 µM | M. incognita (J2 viability in vitro): concentration giving >20% and <80% death (M. incognita (J2)): 45 µM | EC (80% dead) (C. elegans (L1); [1]): 15 µM

CCCc1ccc(-c2ccc(SC(F)F)cc2)nc1 [IIIy (wact-55-12-5), 2-(4-((difluoromethyl)thio)phenyl)-5-propylpyridine]
M. incognita (J2 viability in vitro): concentration giving >20% and <80% death (M. incognita (J2)): np | EC (80% dead) (C. elegans (L1); [1]): 30 µM

CCCc1ccc(-c2ccc(OC(F)F)cc2)cc1 [IIIz (wact-55-12-6), 4-(difluoromethoxy)-4′-propyl-1,1′-biphenyl]
C. elegans (adult viability): lowest concentration tested in which at least 80% of animals were dead (C. elegans (adult)): np | M. incognita (Quick Soil Test): concentration giving 10-20% killing (M. incognita): 45 uM | M. incognita (J2 viability in vitro): concentration giving >20% and <80% death (M. incognita (J2)): np | P. hermaphrodita (L1 viability): lowest concentration tested in which at least 80% of animals were dead (P. hermaphrodita (L1)): 7.5 µM | C. elegans acute motor phene: concentration at which 10-50% of the animals exhibit convulsion/paralysis phenotypes (C. elegans): 60 μM | M. incognita (Egg Hatch Rate) (M. incognita (eggs)): np | EC (80% dead) (C. elegans (L1); [1]): 30 µM | C. elegans (dauer viability): concentration where 10-20% death is exhibited (C. elegans (dauer); compounds 55-2, 55-8, 55-9, 55-12-6): 60 μM

CCCCCCCCCCCCCC(=O)O[C@@H]1[C@@H](C)[C@@]2(O)[C@@H](C=C(CO)C[C@]3(O)C(=O)C(C)=C[C@@H]23)[C@@H]2C(C)(C)[C@]12OC(C)=O [PMA, phorbol myristate acetate, reference compound]
induction of rubber-band (RB) convulsions (C. elegans; in vivo): fail to induced a RB phenotype
